Patent US6914049B2, “IGF-binding protein-derived peptide or small molecule” (Bioexpertise, LLC, priority 2001, dated 2005)
One block for each molecule: values may come before it. Where no end group is shown, it is not given here.

Key:
HEK 293 cells [1] = test: Co-apoptotic activity of MBD peptides and paclitaxel, caspase-3; assay type: cell-based, human; conditions: normalized to MBD2 = 100 on a molar basis; peptide 50 ng/ml, 0.3 ng/ml paclitaxel, 8 hours
Protocol: Peptides (50 ng/ml) were added to 80% confluent HEK 293 cells grown in DMEM supplemented with 0.3 ng/ml paclitaxel concurrent with peptide. Caspase-3 activity was measured in cell extracts 8 hours post-addition.
(§1) Apoptotic activity is expressed in arbitrary caspase-3 units normalized to MBD2 on a molar basis (MBD2 activity was defined as 100 units (avg. of 3 experiments); “nd” indicates “not done”; “ps” indicates phosphoserine. Metal-binding is expressed as a percentage of loaded peptide bound to a Ni-NTA resin; approximately 1-1.5 mg of peptide were loaded on the column. Cell uptake was determined using genetic fusions to GFP as described in Example 9.

[2] = Metal-binding of peptides to Ni-NTA resin; conditions: percentage of loaded peptide bound to Ni-NTA resin; 1-1.5 mg loaded
Protocol: as §1

[3] = Binding of short peptides to Ni-His-Bind column, imidazole elution
Protocol: We further tested the ability of IGFBP-3-derived sub-domains and peptides to bind metal. As shown in Example 5, below, a defined fragment of IGFBP-3 generated in vivo can be captured on IMAC. Two short peptides were passed through a Ni-His-Bind column:
Both peptides bound specifically to the column. Peptide 1 eluted with 60 mM imidazole, whereas higher concentrations of imidazole (1M) were necessary to elute Peptide 2.

HEK293 cells [4] = test: Co-apoptotic activity with paclitaxel in presence of plasma proteins; assay type: cell-based, human; conditions: 50 ng/ml, 0.3 ng/ml paclitaxel, eight hours
Protocol: Co-apoptotic activity of MBD peptides or IGFBP-3 with paclitaxel was tested in the presence or absence of two plasma proteins; fibronectin and fibrinogen. MBD peptides or IGFBP-3, (50 ng/ml), 0.3 ng/ml paclitaxel, and plasma proteins (200 ng/ml) were added to 80% confluent HEK293 cells grown in DMEM essentially as described in Example 8. Caspase-3 was measured after an eight hour incubation.
Apoptotic activity was calculated in arbitrary caspase-3 units normalized to MBD2 (MBD2 activity was defined as 100 units) Results are summarized in Table 4 (average of 3 experiments).

HEK293 cells [5] = test: Caspase-3 apoptosis assay on nutritionally stressed HEK293 cells (Examples 1-2); assay type: cell-based, human
Protocol: Human embryonal kidney 293 (HEK293) cells were grown in Dulbecco's Modified Eagle Medium (D-MEM) supplemented with fetal calf serum at 2%, 4%, 6%, or 8%. When the cells reached 80-85% confluency (cell titer approximately 2.1×10^6 cells per plate), 5 μg of IGFBP-3 or buffer control was added to each plate. The cells were incubated at 37° C. overnight. The next day the medium was removed and the cells were rinsed with trypsin-EDTA (0.25% trypsin, 1 mM EDTA) plus 1× phosphate buffered saline. The cells were centrifuged and the supernatant was removed. ApoAlert caspase-3 assay kit from Clontech Inc (Palo Alto, Calif.) was used to measure apoptosis. The cells were resuspended in 50 μl of chilled cell lysis buffer and incubated on ice for 10 minutes. The resulting cell, lysates were centrifuged at 14000 rpm in a Beckman microcentrifuge for 3 minutes at 4 C. The supernatant was transferred to new tubes and 50 μl of 2× reaction buffer/DTT plus 5 μl of 1 mM caspase-3 substrate was added to each tube. After incubating at 37 C. for 1 hour in a water bath, the samples were read at 405 nm in a microplate reader.
Peptides derived from IGFBP-3 were tested for pro-apoptotic activity essentially as described in Example 1.
The peptides tested are described in Table 1 (peptides marked with an asterisk include a hexahistidine tag).

HEK 293 cells [6] = test: IGF-independence of apoptosis stimulation, caspase-3; assay type: cell-based, human
Protocol: HEK 293 cells were cultured under stressed conditions (low serum or in the presence of paclitaxel) with and without IGFBP-3 (50 ng/ml) or MBD2 (50 ng/ml). Apoptosis was assayed using the caspase-3 assay as described in Example 1.

HEK 293 cells [7] = test: Integrin dependence of pro-apoptotic activity, caspase-3; assay type: cell-based, human; conditions: with paclitaxel; FIG. 12A
Protocol: HEK 293 cells were cultured as described in Example 10, including paclitaxel. Cells were incubated with MDB2 either alone or in combination with an anti-adhesion protein antibody. Antibodies were against integrin associated protein (LAP), fibronectin (Fn), transferrin receptor (TfnR), alpha 5 integrin, alpha 6 integrin, alpha v integrin, beta 1 integrin, and beta 5 integrin. Caspase-3 activity was assayed as described in Example 1.

[8] = system: HEK 293 cells transfected with dominant negative inserts; test: Co-apoptotic activity in cells with blocked signal transduction; assay type: cell-based, human; conditions: AktDN, PTEN, ILKdn, rafDN inserts; with paclitaxel; FIG. 15
Protocol: HEK 293 cells were transfected with pUSEamp, or pUSEamp carrying a Akt dominant negative (AktDN), PTEN, ILK dominant negative (ILKdn) or raf dominant negative (rafDN) insert (Upstate Biotechnologies). The cells were cultured as described in Example 10 (including paclitaxel), with or without MBD2.

MDA-MB-231 cells = test: Sensitization to low dose paclitaxel, NMP levels; assay type: cell-based; conditions: paclitaxel 100 ng/ml, 50 ng/ml peptide, FIG. 16B
Protocol: MDA-MB-231 cells were cultured in the presence of low dose paclitaxel (100 ng/ml) with and without MDB2 (50 ng/ml). Apoptosis was assayed by measuring NMP levels.

MA16C cells = test: Sensitization to low dose doxorubicin, caspase-3; assay type: cell-based; conditions: doxorubicin 75 ng/ml, FIG. 16A
Protocol: MA16C cells were cultured in the presence of MDB2 and a low dose of doxorubicin (75 ng/ml). Apoptosis was assayed using the caspase-3 assay as described in Example 1.

HEK293 cells [9] = test: Nuclear translocation of MBD-GFP32 after endocytosis inhibitors; assay type: cell-based, human; conditions: inhibitor 10 μg/ml one hour; 500 ng/ml MBD-GFP32, twenty minutes; FIG. 19
Protocol: HEK293 cells were pre-incubated with inhibitors nystatin (inhibitor of caveolin pathway) or chlorpromazine (inhibitor of clathrin pathway) for one hour at 10 μg/ml. […] Extracts were assayed by anti-GFP ELISA.

[10] = system: MA-16C mammary adenocarcinoma tumors; test: MA-16C mammary adenocarcinoma tumor implants; assay type: in vivo, female C3H mice; conditions: DOX study
Protocol: Fragments of MA-16C mammary adenocarcinoma tumors were implanted subcutaneously into female C3H mice (8-11 animals per group). The animals were treated with vehicle alone, IGFBP-3 (4 mg/kg/day for 21 days by subcutaneous injection), doxorubicin (2 mg/kg on days 1 and 8 by intravenous injection), or IGFBP-3 plus doxorubicin. A separate study was performed where the animals were treated with vehicle alone, 5-fluorouracil (10 mg/kg on days 1-5 by intraperitoneal injection), or IGFBP-3 plus 5-fluorouracil. Tumor size was measured at day 18, and the mice were sacrificed at day 21, and the implanted tumors were removed for determination of caspase-3 activity (a marker of apoptosis-only performed for DOX groups).

HEK293 cells [11] = test: Nuclear translocation of biotinylated peptide/streptavidin-HRP conjugate; assay type: cell-based, human; conditions: approx. 90 Kd conjugate, 20 minutes; FIG. 24
Protocol: Biotinylated MBD peptides MBD9, MBD20 ([…] (SEQ ID NO: 37): the MBD core 14mer is underlined, and the caveolin consensus binding sequence is bolded) or MBD21 ([…] (SEQ ID NO: 38): the MBD core 14mer is underlined, and the caveolin consensus binding sequence is bolded) were each mixed with streptavidin-horseradish peroxidase conjugate (3-6× molar excess of MBD peptide) and added to HEK293 cells. After 20 minutes, nuclear and cytoplasmic extracts were prepared as described in Example 20 and assayed for peroxidase activity.

Metal-binding [2]: 45 percentage
Molecule: KKGFYKKKQCRPSKGRKRGFCWNGRK [MBD9]
Apoptotic Activity (HEK 293 cells [1]): 149 arbitrary caspase-3 units

Metal-binding [2]: 100 percentage
Molecule: QCRPSEGGKRGFCW [MBD3]
Apoptotic Activity (HEK 293 cells [1]): <5 arbitrary caspase-3 units

binding to the column [3]: binds metal more tightly | imidazole concentration necessary to elute the peptide [3]: 1 M | Metal-binding [2]: 66 percentage
Molecule: QCRPSKGRKRGFCW [MBD2]
co-apoptotic activity with Fibrinogen (HEK293 cells [4]; Fibrinogen 200 ng/ml): 67.5 arbitrary caspase-3 units | co-apoptotic activity with Fibronectin (HEK293 cells [4]; Fibronectin 200 ng/ml): 98.3 arbitrary caspase-3 units | co-apoptotic activity, plasma protein none (HEK293 cells [4]; no plasma protein): 100.0 arbitrary caspase-3 units | Apoptotic Activity (HEK 293 cells [1]): 100 arbitrary caspase-3 units | pro-apoptotic activity relative to intact IGFBP-3 or a longer peptide (HEK293 cells [5]; on a weight basis, FIG. 4B): 3-4 × | IGF dependence of pro-apoptotic activity (HEK 293 cells [6]; 0.3 ng/ml paclitaxel, alone or with Y60L-IGF-I, FIG. 11C): independent of the presence of IGF | pro-apoptotic activity under stressed conditions (HEK 293 cells [6]; low serum or paclitaxel, 50 ng/ml, FIGS. 11A, 11B): nearly identical | pro-apoptotic activity with anti-adhesion protein antibodies (HEK 293 cells [7]): inhibited by antibodies against integrins and integrin-associated proteins | pro-apoptotic activity in cells with blocked pathways [8]: inhibited in cells in which the PI3K/ILK kinase signal transduction pathway is blocked, but not in cells where the MAPK signal transduction pathway is blocked | sensitization to paclitaxel (MDA-MB-231 cells): sensitizes MDA-MB-231 cells to low doses of paclitaxel | sensitization to doxorubicin (MA16C cells): sensitizes MA16C mammary adenocarcinoma cells to low doses of doxorubicin

Molecule: C[C@@H]1[C@H](O)[C@@H](C)/C=C/C=C/CC/C=C/C=C/C=C/C=C/C(O[C@H]2O[C@H](C)[C@@H](O)[C@H](N)[C@@H]2O)CC2O[C@](O)(CC(O)C(O)CCC(O)CC(O)CC(O)CC(=O)O[C@H]1C)CC(O)C2C(=O)O (some centres unmarked) [nystatin]
effect on nuclear translocation of MBD peptides (HEK293 cells [9]): inhibit nuclear translocation of MBD peptides

Molecule: DKKGFYKKKQCRPSKGRKRGFCW [MBD1]
imidazole concentration that elutes the peptide [3]: 60 mM | Apoptotic Activity (HEK 293 cells [1]): 10-15 arbitrary caspase-3 units | pro-apoptotic activity (HEK293 cells [5]; FIG. 4A/4B): dramatic lowering of pro-apoptotic activity | Metal-binding [2]: 22 percentage

Molecule: KKEKDIMKKTIQCRPSKGRKRGFCWNGR [MBD10]
Apoptotic Activity (HEK 293 cells [1]): 127 arbitrary caspase-3 units

Metal-binding [2]: 92 percentage
Molecule: CRPSKGRKRGFC [MBD4]
Apoptotic Activity (HEK 293 cells [1]): 10-15 arbitrary caspase-3 units

Metal-binding [2]: 28 percentage
Molecule: QCKPSRGRKRGICW [BP5n1s]
Apoptotic Activity (HEK 293 cells [1]): <5 arbitrary caspase-3 units

Molecule: CRPSKGRKRGFCW [MBD12]
Apoptotic Activity (HEK 293 cells [1]): 10-40 arbitrary caspase-3 units

Molecule: QCRPSKGRKRGFC [MBD13]
Apoptotic Activity (HEK 293 cells [1]): 10-40 arbitrary caspase-3 units

Metal-binding [2]: 11 percentage
Molecule: QCRPSKGRKRGFCWNGR [MBD7]
Apoptotic Activity (HEK 293 cells [1]): 89 arbitrary caspase-3 units

Molecule: COc1cccc2c1C(=O)c1c(O)c3c(c(O)c1C2=O)C[C@@](O)(C(=O)CO)C[C@@H]3O[C@H]1C[C@H](N)[C@H](O)[C@H](C)O1 [DOX, doxorubicin, reference compound]
Tumor Weight ([10]; IGFBP-3 4 mg/kg/day sc 21 days, doxorubicin 2 mg/kg iv days 1 and 8): 1966 + 677 mg | Lung Metastases ([10]; animals with metastases/animals): 0/12 | Caspase-3 ([10]; tumors removed at day 21): 7.88 ± 6.27

Molecule: KKGFYKKKQCRPSKGRKRGFCWAVDKYG (cysteine pairing not given here; also: biotinylated, position not given here) [MBD21, tested biotinylated with streptavidin-HRP]
nuclear mobilization of streptavidin-HRP conjugate compared with MBD9 (HEK293 cells [11]): far more efficiently

Metal-binding [2]: 95 percentage
Molecule: GFYKKKQCRPSKGRKRGFCW [MBD5]
Apoptotic Activity (HEK 293 cells [1]): 10-15 arbitrary caspase-3 units

Molecule: CN(C)CCCN1c2ccccc2Sc2ccc(Cl)cc21 [chlorpromazine]
effect on nuclear translocation of MBD peptides (HEK293 cells [9]): inhibit nuclear translocation of MBD peptides

Molecule: QCRPSKGRKRGFCWAVDKYG (cysteine pairing not given here; also: biotinylated, position not given here) [MBD20, tested biotinylated with streptavidin-HRP]
nuclear mobilization of streptavidin-HRP conjugate compared with MBD9 (HEK293 cells [11]): far more efficiently

Molecule: QCKMSLNGQRGECW [BP2n1s]
Apoptotic Activity (HEK 293 cells [1]): <5 arbitrary caspase-3 units
